Test results as given in publication PMC13270519, “Cytochrome P450-Mediated Metabolism of Antimycobacterial Nα‑Aroyl‑N‑aryl-phenylalanine Amides” (ACS Infectious Diseases, 2026).

Test: Metabolic stability in mouse liver microsomes (t1/2)
Type: in vitro ADME
Settings: NADPH, 37 °C
Description: Microsomal incubations were carried out in 96-well plates in 3 aliquots of 30 μL each (one for each time point). Liver microsomal incubation medium comprised phosphate buffer (100 mM, pH 7.4), MgCl2 (3 mM), NADPH (3 mM), glucose-6-phosphate (5.3 mM), and glucose-6-phosphate dehydrogenase (0.67 units/mL) with 0.42 mg of liver microsomal protein per mL. In the control reactions, the NADPH-cofactor system was substituted with phosphate buffer. Test compounds (2 μM, final solvent concentration 1.6%) were incubated with microsomes at 37 °C, shaking at 100 rpm. Three time points over 7 min were analyzed. The reactions were stopped by adding 5 volumes of methanol with internal standard to incubation aliquots followed by protein sedimentation by centrifuging at 6,000 rpm for 20 min. Each reaction was performed in duplicate. Supernatants were analyzed using the HPLC system coupled with a tandem mass spectrometer and high-resolution mass spectrometer.
The incubation was stopped after defined time points by precipitation of aliquots of enzymes with 2 volumes of cold internal standard solution (15 nM diphenhydramine in 10% methanol/acetonitrile). […] The remaining test compound at the different time points was analyzed by HPLC-MS/MS (Vanquish Flex coupled to a TSQ Altis Plus, Thermo Fisher, Dreieich, Germany) and used to determine half-life (t 1/2).

Row | SMILES | Mouse liver microsomes t1/2 [min]
1 | O=C(N[C@H](Cc1ccccc1)C(=O)Nc1ccccc1N1CCS(=O)(=O)CC1)c1ccccc1F [AAP-SO2] | 1.8
2 | O=C(N[C@H](Cc1ccccc1)C(=O)Nc1ccccc1N1CCOCC1)c1cccs1 [MMV688845] | 0.9
